Source: US12486280B2, “CDK inhibitors and uses thereof” (California Institute of Technology, priority 2018, dated 2025)
Values after ≈ are worked out from the molar mass of the structure shown. Read-outs that look alike come from different tables or passages of the source.

What was measured:
[1] = Compound Solubility Assay (kinetic solubility); format: physicochemical
Procedure: The relative kinetic solubility of each compound was determined at both low (1.2) and neutral (7.4) pH. Compounds were prepared at 10 mM stocks. […] Compounds were allowed to shake at room temperature for 24 hours in 50 mM phosphate buffer pH 7.4, or in SGF buffer pH 1.2 at 37° C. for 24 hours.

CDK4 = CDK4 (Homo sapiens (Human), UniProt P11802); experiment: Cdk4 and 6 Enzymatic Inhibition Assay (radiometric 33PanQinase, Ki determination); format: biochemical
Sequence of CDK4 (P11802 whole entry): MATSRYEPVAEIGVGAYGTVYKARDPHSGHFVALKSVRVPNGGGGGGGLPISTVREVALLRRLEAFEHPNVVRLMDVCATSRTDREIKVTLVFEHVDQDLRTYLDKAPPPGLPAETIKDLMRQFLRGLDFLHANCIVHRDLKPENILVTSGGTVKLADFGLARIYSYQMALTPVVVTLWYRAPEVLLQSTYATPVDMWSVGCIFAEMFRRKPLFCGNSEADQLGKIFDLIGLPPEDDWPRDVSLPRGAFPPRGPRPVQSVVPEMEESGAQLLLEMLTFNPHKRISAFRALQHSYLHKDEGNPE
Sequence of CDK4 (P24385 whole entry partner): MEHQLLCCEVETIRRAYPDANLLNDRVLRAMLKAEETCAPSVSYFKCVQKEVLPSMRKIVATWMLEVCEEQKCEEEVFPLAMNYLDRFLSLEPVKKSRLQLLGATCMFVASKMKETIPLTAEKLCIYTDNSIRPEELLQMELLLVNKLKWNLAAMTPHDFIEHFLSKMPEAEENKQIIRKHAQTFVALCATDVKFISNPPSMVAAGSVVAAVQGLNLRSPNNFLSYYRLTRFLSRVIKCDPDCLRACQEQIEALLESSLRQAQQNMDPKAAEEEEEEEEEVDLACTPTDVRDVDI
In short: (§1)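 Radiometric 33PanQinase assay in 70 mM HEPES-NaOH pH 7.5 with 3 mM MgCl2, 3 mM MnCl2, [γ-33P]-ATP, kinase and substrate; 60 min at 30° C, 1% DMSO final. Ten final concentrations from 2×10^−6 M to 6×10^−11 M; 33Pi incorporation counted by scintillation after H3PO4 stop.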

CDK6 = CDK6 (Homo sapiens (Human), UniProt Q00534); experiment: as above; format: biochemical
Sequence of CDK6 (Q00534 whole entry): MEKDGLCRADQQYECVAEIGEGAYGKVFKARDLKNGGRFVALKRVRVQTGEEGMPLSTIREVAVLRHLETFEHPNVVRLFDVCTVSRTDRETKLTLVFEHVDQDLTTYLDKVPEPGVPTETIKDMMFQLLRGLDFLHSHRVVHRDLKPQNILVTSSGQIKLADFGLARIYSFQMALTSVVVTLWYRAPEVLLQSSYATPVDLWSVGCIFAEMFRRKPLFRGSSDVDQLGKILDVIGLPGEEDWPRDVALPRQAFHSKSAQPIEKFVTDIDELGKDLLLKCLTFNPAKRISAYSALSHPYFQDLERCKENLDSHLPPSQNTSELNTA
Sequence of CDK6 (P24385 whole entry partner): as the sequence (P24385 whole entry partner) above
In short: as §1

[2] = system: CYP isozymes (IC50s averaged over the isozymes); experiment: CYP Enzymatic Inhibition Assay in human liver microsomes
Procedure: Inhibition of various CYP isozymes was measured for each compound using a CYP enzyme inhibition assay in human liver microsomes (HLM). Compounds and standard inhibitors were prepared at a 100× working solutions. Substrates or PBS were added to the corresponding wells followed by addition of compounds, solvent or positive control working solution to corresponding wells. HLMs were added to the pre-warmed (37° C.) plate and mixed with NADPH cofactor for 10 minutes at 37° C. The reaction was terminated by adding 400 μL cold stop solution (200 ng/mL Tolbutamide and 200 ng/mL Labetalol in ACN). The plate was centrifuged at 4,000 rpm for 20 minutes, and supernatant was transferred to 100 μL HPLC water followed by LC/MS/MS analysis.

[3] = Caco-2 Assay (Papp A to B); details: human, Caco-2, pH 7.4
[4] = Measurement of Compound Metabolic Stability in hepatocytes
Procedure: The metabolic stability of compounds was determined in hepatocytes from mice and rats. Compounds were diluted to 5 μM in Williams' Medium E from 10 mM stock solutions. 10 μL of each compound was aliquoted into a well of a 96-well plate and reactions were started by aliquoting 40 μL of a 625,000 cells/mL suspension into each well. The plate was incubated at 37° C. with 5% CO2. At each corresponding time point, the reaction was stopped by quenching with ACN containing internal standards (IS) at a 1:3. Plates were shaken at 500 rpm for 10 min, and then centrifuged at 3,220×g for 20 minutes. Supernatants were transferred to another 96-well plate containing a dilution solution. Supernatants were analyzed by LC/MS/MS. Compound half-life was estimated using the following equation:

hERG potassium channels = hERG potassium channels (Homo sapiens (Human), UniProt Q12809); experiment: hERG Inhibition Assay (QPatch automated patch clamp, CHO cells); details: percent of control current
Sequence of hERG potassium channels (Q12809 whole entry): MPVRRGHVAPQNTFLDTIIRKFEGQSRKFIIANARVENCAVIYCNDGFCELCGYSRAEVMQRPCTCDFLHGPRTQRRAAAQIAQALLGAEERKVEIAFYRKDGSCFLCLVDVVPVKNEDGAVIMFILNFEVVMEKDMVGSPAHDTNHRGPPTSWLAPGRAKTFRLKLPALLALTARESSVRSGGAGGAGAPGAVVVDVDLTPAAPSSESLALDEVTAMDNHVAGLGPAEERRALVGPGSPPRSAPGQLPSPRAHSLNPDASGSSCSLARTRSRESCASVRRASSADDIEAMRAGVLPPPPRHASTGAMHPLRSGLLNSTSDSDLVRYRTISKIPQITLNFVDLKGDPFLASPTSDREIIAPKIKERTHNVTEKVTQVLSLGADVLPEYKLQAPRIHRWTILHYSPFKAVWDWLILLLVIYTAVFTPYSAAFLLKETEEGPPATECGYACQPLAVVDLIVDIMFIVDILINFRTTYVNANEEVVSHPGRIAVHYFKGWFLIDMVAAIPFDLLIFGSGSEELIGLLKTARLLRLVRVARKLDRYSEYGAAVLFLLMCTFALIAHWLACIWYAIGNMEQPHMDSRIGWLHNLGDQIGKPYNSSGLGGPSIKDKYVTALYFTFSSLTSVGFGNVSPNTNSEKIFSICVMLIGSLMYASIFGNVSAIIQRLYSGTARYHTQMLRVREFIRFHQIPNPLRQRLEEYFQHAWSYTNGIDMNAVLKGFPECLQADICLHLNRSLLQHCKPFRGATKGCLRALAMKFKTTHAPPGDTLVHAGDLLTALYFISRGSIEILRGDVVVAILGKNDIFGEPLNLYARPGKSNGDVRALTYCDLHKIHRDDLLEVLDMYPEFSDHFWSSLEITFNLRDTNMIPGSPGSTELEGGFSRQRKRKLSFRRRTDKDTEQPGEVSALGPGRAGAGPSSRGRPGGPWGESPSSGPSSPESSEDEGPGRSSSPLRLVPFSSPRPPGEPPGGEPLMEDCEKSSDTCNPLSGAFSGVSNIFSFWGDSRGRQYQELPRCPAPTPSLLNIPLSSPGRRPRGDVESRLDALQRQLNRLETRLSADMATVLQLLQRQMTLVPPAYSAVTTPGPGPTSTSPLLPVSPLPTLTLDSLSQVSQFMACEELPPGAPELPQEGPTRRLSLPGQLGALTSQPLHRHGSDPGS
Procedure: Effects of compounds on hERG potassium channel conductance was assessed using the automated patch clamp method QPatch^HTX. Compounds were prepared at 10 mM stocks. CHO cells stably expressing hERG potassium channels were used for this assay. Cells were cultured in a humidified and air-controlled 5% CO2) incubator at 37° C. Compound stocks and the positive control Amitriptyline were dissolved in 100% DMSO to make various solution concentrations. These solutions were further diluted into extracellular solution to achieve final concentrations for testing. The final DMSO concentration in extracellular solution was 0.30%. The hERG QPatch^HTX assay was conducted at room temperature.
The following voltage command protocol was used: • From the holding potential of −80 mV, the voltage was first stepped to −50 mV for 80 ms for leak subtraction, and then stepped to +20 mV for 4,800 ms to open hERG channels. • After which, the voltage was stepped back down to −50 mV for 5,000 ms, causing a “rebound” or tail current, which was measured and collected for data analysis. • Finally, the voltage was stepped back to the holding potential of −80 mV for 3,100 ms.
For each experiment, three additions of 5 μL of the vehicle were applied, followed by 30 runs of the voltage command protocol for a baseline period. Then, the ascending doses of each compound were added with three repetitions (5 μL of compound each time).

[5] = system: drug-resistant cell lines of Table 2 (NCI-H1437, OV207, HCC1806, NCI-H2172); experiment: Cell Line Growth Retardation Assay, resistant cohort; format: cell-based, human; details: Homo sapiens, […], geometric mean over resistant cohort; 6 days growth; read-out: AvgResIC50
In short: (§2)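 Cells rested 24 h, then exposed 6 days to compound at 10, 2, 0.4, 0.08, 0.016 and 0.0032 μM; counted by imaging on day 0 and day 6. Growth inhibition as ratio of population doublings versus vehicle; IC50 from curve fits, cohort values as geometric means.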

[6] = system: drug-sensitive cell lines of Table 2 (EFM-19, MDA-MB-453, T-47D, ZR-75-1, NCI-H441, OVTOKO, NCI-H1838); experiment: Cell Line Growth Retardation Assay, sensitive cohort; format: cell-based, human; details: for IC50: Homo sapiens, geometric mean over sensitive cohort, 6 days growth, read-out: AvgSensIC50; for Ther Window: average IC50 drug-resistant group divided by average IC50 drug-sensitive group
In short: as §2

[7] = 50 mM phosphate buffer, pH 7.4, aqueous buffer, kinetic from dmso stock, read-out: KS7
[8] = simulated gastric fluid, kinetic from dmso stock, kinetic solubility, SGF buffer pH 1.2, 37° C., 24 hours, read-out: KS1

SMILES | solubility kinetic at 24 h [1, 7] [µM] | solubility kinetic at 24 h [1, 8] [µM] | Ki (CDK4) [nM] | Ki (CDK6) [nM] | IC50 at 10 min [2] [µM] | Papp A→B at 2 h, 2 μM [3] [×10⁻⁶ cm/s] | half-life at 1 μM [4] [min] | IC50 [5] [nM] | IC50 [6] [nM] | solubility kinetic at 24 h ([1]; kinetic solubility, SGF buffer pH 1.2, 37° C., 24 hours, read-out: KS1) [µM] | hERG (hERG potassium channels) [%] | Ther Window [6]
Cc1nc2c(F)cc(-c3nc(Nc4ccc(CN5CCO[C@](C)(CCNCC(F)(F)F)C5)cn4)ncc3F)cc2n1C(C)C [Compound A9, (R)-5-fluoro-4-(4-fluoro-1-isopropyl-2-methyl-1H-benzo[d]imidazol-6-yl)-N-(5-((2-methyl-2-(2-((2,2,2-trifluoroethyl)amino)ethyl)morpholino)methyl)pyridin-2-yl)pyrimidin-2-amine] | 1 (≈ 0.619 µg/mL) | 200 (≈ 124 µg/mL) | 2.54 | 14.5 | 26.1 | 2.14 | 15.3 | 1000 | 120 |  | 21.86 | 8.59
Cc1nc2c(F)cc(-c3nc(Nc4ccc(CN5CCO[C@](C)(CCN6CCOCC6)C5)cn4)ncc3F)cc2n1C(C)C [Compound A19, (R)-5-fluoro-4-(4-fluoro-1-isopropyl-2-methyl-1H-benzo[d]imidazol-6-yl)-N-(5-((2-methyl-2-(2-morpholinoethyl)morpholino)methyl)pyridin-2-yl)pyrimidin-2-amine] | 139 (≈ 84.2 µg/mL) | 200 (≈ 121 µg/mL) | 1.37 | 7.07 | 29 | 0.91 | 16.8 | 970 | 190 |  | 18.14 | 5.12
COC(=O)N1CC[C@]2(CN(Cc3ccc(Nc4ncc(F)c(-c5cc(F)c6nc(C)n(C(C)C)c6c5)n4)nc3)CCO2)C1 [Compound A30, methyl (S)-9-((6-((5-fluoro-4-(4-fluoro-1-isopropyl-2-methyl-1H-benzo[d]imidazol-6-yl)pyrimidin-2-yl)amino)pyridin-3-yl)methyl)-6-oxa-2,9-diazaspiro[4.5]decane-2-carboxylate] | 2.52 (≈ 1.49 µg/mL) | 200 (≈ 119 µg/mL) | 2.95 | 16.5 | 30 | 4.6 | 4.99 | 990 | 110 |  | 15.21 | 9.41
Cc1nc2c(F)cc(-c3nc(Nc4ccc(CN5CCO[C@@]6(CCN(S(C)(=O)=O)C6)C5)cn4)ncc3F)cc2n1C(C)C [Compound A31, (S)-5-fluoro-4-(4-fluoro-1-isopropyl-2-methyl-1H-benzo[d]imidazol-6-yl)-N-(5-((2-(methylsulfonyl)-6-oxa-2,9-diazaspiro[4.5]decan-9-yl)methyl)pyridin-2-yl)pyrimidin-2-amine] | 3.09 (≈ 1.89 µg/mL) | 200 (≈ 123 µg/mL) | 1.71 | 10.2 | 12.8 | 0.85 | 5.65 | 960 | 140 |  | 21.67 | 6.72
Cc1nc2c(F)cc(-c3nc(Nc4ccc(CN5CCO[C@]6(CCN(S(C)(=O)=O)C6)C5)cn4)ncc3F)cc2n1C(C)C [Compound A32] | 1.6 (≈ 0.98 µg/mL) | 200 (≈ 123 µg/mL) | 3.07 | 17.4 | 31.5 | 1.08 | 4.24 | 1000 | 160 |  | 14.35 | 6.24

The next lines start with results.

solubility kinetic at 24 h [1, 7] [µM] | solubility kinetic at 24 h [1, 8] [µM] | Ki (CDK4) [nM] | Ki (CDK6) [nM] | IC50 at 10 min [2] [µM] | Papp A→B at 2 h, 2 μM [3] [×10⁻⁶ cm/s] | half-life at 1 μM [4] [min] | IC50 [5] [nM] | IC50 [6] [nM] | solubility kinetic at 24 h ([1]; kinetic solubility, SGF buffer pH 1.2, 37° C., 24 hours, read-out: KS1) [µM] | SMILES | hERG (hERG potassium channels) [%] | Ther Window [6]
1 (≈ 0.613 µg/mL) |  | 2.18 | 12.8 | 21.6 | 2.62 | 13.1 | 860 | 110 | 200.00 (≈ 123 µg/mL) | Cc1nc2c(F)cc(-c3nc(Nc4ccc(CN5CCO[C@](C)(CCN6CC(F)(F)C6)C5)cn4)ncc3F)cc2n1C(C)C [Compound A12, (R)—N-(5-((2-(2-(3,3-difluoroazetidin-1-yl)ethyl)-2-methylmorpholino)methyl)pyridin-2-yl)-5-fluoro-4-(4-fluoro-1-isopropyl-2-methyl-1H-benzo[d]imidazol-6-yl)pyrimidin-2-amine] | 19.54 | 8.17
15.6 (≈ 8.57 µg/mL) | 200 (≈ 110 µg/mL) | 0.52 | 3.55 | 35.8 | 0.05 | 202 | 870 | 80 |  | CNCC[C@@]1(C)CN(Cc2ccc(Nc3ncc(F)c(-c4cc(F)c5nc(C)n(C(C)C)c5c4)n3)nc2)CCO1 [Compound A22, (S)-5-fluoro-4-(4-fluoro-1-isopropyl-2-methyl-1H-benzo[d]imidazol-6-yl)-N-(5-((2-methyl-2-(2-(methylamino)ethyl)morpholino)methyl)pyridin-2-yl)pyrimidin-2-amine] | 15.58 | 10.57
140 (≈ 81.2 µg/mL) | 200 (≈ 116 µg/mL) | 1.73 | 8.63 | 51.5 | 0.03 | 89.4 | 770 | 130 |  | Cc1nc2c(F)cc(-c3nc(Nc4ccc(CN5CCO[C@](C)(C[C@@H](C)N(C)C)C5)cn4)ncc3F)cc2n1C(C)C [Compound A26] | 39.08 | 6.10
107 (≈ 61.9 µg/mL) | 200 (≈ 116 µg/mL) | 1.21 | 6.57 | 25.8 | 0.06 | 71.2 | 900 | 80 |  | Cc1nc2c(F)cc(-c3nc(Nc4ccc(CN5CCO[C@](C)(C[C@H](C)N(C)C)C5)cn4)ncc3F)cc2n1C(C)C [Compound A27] | 24.78 | 11.50
15.8 | 200 | 0.46 | 2.6 | 94 | 0.09 | 55.2 | 390 | 70 |  | Cc1nc2c(F)cc(-c3nc(Nc4ccc(CN5CCO[C@@](C)(C[C@@H](C)N(C)C)C5)cn4)ncc3F)cc2n1C(C)C [Compound A28, N-(5-(((S)-2-((R)-2-(dimethylamino)propyl)-2-methylmorpholino)methyl)pyridin-2-yl)-5-fluoro-4-(4-fluoro-1-isopropyl-2-methyl-1H-benzo[d]imidazol-6-yl)pyrimidin-2-amine methanesulfonate] | 6.78 | 5.23
